Assay: mn = molality of the nth substance listed, in mol/kg
Settings: 298.15 K, 101.3 kPa, Liquid, Taylor dispersion method

CCC(N)C(=O)O (stereo not drawn) [(.+-.)-α-aminobutyric acid] + O
Settings | binary diffusion coefficient [m2/s]
m1 = 0.001003 | 8.42e-10
m1 = 0.005014 | 8.41e-10
m1 = 0.01003 | 8.39e-10
m1 = 0.02005 | 8.38e-10
m1 = 0.05008 | 8.35e-10
m1 = 0.1 | 8.32e-10

— the NIST ThermoML archive (doi:10.1016/j.jct.2019.03.009)
